Measured values published in patent US6723702B2, “Use of relaxin treat diseases related to vasoconstriction” (RAS Medical, Inc., priority 2000, dated 2004).

What was measured:
conscious rats = experiment: Acute infusion of ANG II during chronic infusion of purified porcine RLX; format: in vivo, rat; conditions: for ERPF / ERVR / GFR / MAP: RLX 4 μg/h s.c. day 5
Description: At least 7 days after the implantation of vascular and bladder catheters, osmotic minipumps containing either porcine RLX (4 μg/hour) or vehicle (Ringer's solution) were implanted in intact, female rats (n=7 and 6 rats, respectively). Renal function and MAP were measured on day 5 of relaxin infusion (three 30-minute urine and midpoint blood collections). Next, an infusion of L-NAME (2 μg/minute, a substrate competitive inhibitor of NO synthase) was administered intravenously (i.v.) by infusion pump (Model 200, KD Scientific, Boston, Mass.). Four 1-hour urine collections with midpoint blood samples were collected for the assessment of GFR, ERPF, and ERVR during the L-NAME administration. Identical procedures were performed on additional animals chronically administered porcine RLX (n=5) or vehicle (n=5), except that ANG II (3 ng/minute) was infused rather than L-NAME. Finally, another four, age-matched control rats were administered Ringer's solution instead of either L-NAME or ANG II on day 5 of porcine RLX infusion.
To minimize the possibility that the convergence of renal function in the relaxin and vehicle infused rats elicited by L-NAME was merely a consequence of nonspecific renal vasoconstriction, the experimental paradigm was repeated using another vasoconstrictor, ANG II. Values are provided as mean±SEM. Relaxin, RLX; Angiotensin II, ANG II. ANG II was infused at 3 ng/min i.v., and RLX at 4 μg/h by osmotic minipump s.c. There were five rats each in the RLX and vehicle groups. *p<0.05 vs baseline, Hp<0.05 RLX vs vehicle.

[1] = Relaxin ELISA in serum (Example 5); format: in vivo, rat; conditions: day 10
Excerpt: The pulmonary artery trunk, right and left extrapulmonary branches were removed en bloc, cleaned of surrounding tissue, and weighed. The left lung was and excised and the entire hilar artery dissected from parenchyma and weighed (Tozzi et al. (1994) Am. J. Respir. Crit. Care Med. 149:1316-1326). Segments were hydrolyzed, and total hydroxyproline and protein determined (Poiani et al. (1990) Circ. Res. 66:968-978). Approximately 3 cc of whole blood was centrifuged, serum aspirated, and sample frozen at −20° C. for determination of rRlx levels by ELISA assay.
Levels of relaxin in serum were measured in a quantitative sandwich immunoassay, as previously described (Unemori et al. (1996) J. Clin. Invest. 98:2739-2745).

[2] = test system: rat VEGF164, VEGF120 and bFGF mRNA in peri-infarct area of rat hearts; experiment: Rat myocardial infarct (LCAL) model: quantitative RT-PCR of VEGF and bFGF; format: in vivo
Description: Female Sprague Dawley rats, approximately 12-weeks of age were used. Rats were anesthetized by intraperitoneal (i.p.) injection of up to 1 ml/kg ketamine/medetomidine (6:4). Following exteriorization of the heart, the left coronary artery was ligated near its origin with a silk suture. In sham surgery control animals, the suture was placed superficially into the muscle adjacent to the coronary artery. Post-closure EKG's were monitored for S-T segment elevation in LCAL animals to confirm the outcome of ligation. Immediately following cardiac surgery, a primed mini-osmotic pump containing relaxin or vehicle (20 mM acetate, pH 5.0) was aseptically implanted into a subcutaneous (s.c.) pocket on the dorsal interscapular region. Vehicle or relaxin (0.1 mg/kg/day) was delivered as a continuous s.c. infusion for 7 or 21 days to either sham or LCAL animals. Animals were terminated on day 7 or 21, and the peri-infarct regions anterior to the scar in the left ventricle, or equivalent sites on sham surgery animals were harvested.
The left coronary artery ligation (LCAL) model of myocardial ischemia in the rat (Selye et al. (1960) Angiology 11:398-407) caused profound, acute damage, involving up to 50% of the left ventricular free wall. Following systemic relaxin treatment, using rhRLX, tissue RNA was examined at 7 and 21 days post-infarction for persistent changes in VEGF and bFGF. Cells in the immediate margins surrounding the infarct were sampled to assess angiogenic cytokine expression, using quantitative RT-PCR analysis. Oligonucleotide primers and TaqMan probes, shown in Table 8, were purchased from BioSource International Inc.(Camarillo, Calif.), or PE Applied Biosystems for use with the ABI Prism^7 7700 Sequence Detection System (quantitative PCR) (PE Applied Biosystems).
Oligonucleotides were designed to rat or human bFGF, human VEGF165 amino acid or 121 amino acid isoforms, and their respective rat homologues (VEGF164 and VEGF120), and human HGF (for use with the PE Applied Biosystems “GeneAmp PCR System 9600”). Rat and human GAPDH primers and probes were purchased from BioSource International Inc. and PE Applied Biosystems, respectively. Tissue samples and monolayer cells were suspended in RNA STAT-60 (Tel-Test, Inc., Friendswood, Tex.) and processed following vendor instructions. Reverse transcription-polymerase chain reaction (RT-PCR) was performed using either rat or human total RNA as template. 150 ng of total RNA was used for the analysis of VEGF, bFGF and HGF mRNA expression; 10 ng of total RNA was used for GAPDH mRNA expression. Reverse transcription-polymerase chain reaction (RT-PCR) reagents were purchased from PE Biosystems (Foster City, Calif.).
RNA was extracted from peri-infarct regions of rat hearts following LCAL or an analogous area of sham hearts. […]

Porcine RLX: lyophilized, purified porcine relaxin (Sherwood and O'Byrne 1974), dissolved in Ringer's solution
ERPF (conscious rats; ANG II 3 ng/min i.v., 60 min): 8926 | ERVR (conscious rats; ANG II 3 ng/min i.v., 60 min): 8.88 | GFR (conscious rats; ANG II 3 ng/min i.v., 60 min): 2980 | MAP (conscious rats; ANG II 3 ng/min i.v., 60 min): 130 | ERPF (conscious rats; ANG II 3 ng/min i.v., 120 min): 9646 | ERVR (conscious rats; ANG II 3 ng/min i.v., 120 min): 9.24 | GFR (conscious rats; ANG II 3 ng/min i.v., 120 min): 2653 | MAP (conscious rats; ANG II 3 ng/min i.v., 120 min): 142 | ERPF (conscious rats; ANG II 3 ng/min i.v., 180 min): 7738 | ERVR (conscious rats; ANG II 3 ng/min i.v., 180 min): 11.52 | GFR (conscious rats; ANG II 3 ng/min i.v., 180 min): 2578 | MAP (conscious rats; ANG II 3 ng/min i.v., 180 min): 143 | ERPF (conscious rats; ANG II 3 ng/min i.v., 240 min): 7698 | ERVR (conscious rats; ANG II 3 ng/min i.v., 240 min): 11.84 | GFR (conscious rats; ANG II 3 ng/min i.v., 240 min): 2763 | MAP (conscious rats; ANG II 3 ng/min i.v., 240 min): 146 | ERPF (conscious rats; Baseline before ANG II): 10364 | ERVR (conscious rats; Baseline before ANG II): 6.23 | GFR (conscious rats; Baseline before ANG II): 2929 | MAP (conscious rats; Baseline before ANG II): 111 | percent increase in MAP and reduction in GFR elicited by ANG II (conscious rats; RLX treated vs vehicle infused rats): comparable | percent increase in ERVR and reduction in ERPF elicited by ANG II (conscious rats; chronic relaxin vs vehicle): markedly attenuated

rhRLX: recombinant human relaxin, identical in amino acid sequence to the product of the human H2 gene; A chain of 24, B chain of 29 amino acids
rRlx serum levels ([1]; 1 mg-air (low rhRlx-air)): 2.9 ± 1.0 ng/mL | rRlx serum levels ([1]; 1 mg-hyp (low rhRlx-hyp)): 3.2 ± 0.4 ng/mL | rRlx serum levels ([1]; 5 mg-air (hi rhRlx-air)): 9.9 ± 2.8 ng/mL | rRlx serum levels ([1]; 5 mg-hyp (hi rhRlx-hyp)): 11.5 ± 2.5 ng/mL | increase in peri-infarct bFGF expression (mRNA) ([2]; 0.1 mg/kg/day s.c., both 7 and 21 days, vs vehicle-treated infarcted hearts): 2 fold | relative expression of either VEGF isoform, peri-infarct regions ([2]; 0.1 mg/kg/day, day 7): no changes | relative levels of VEGF164 and VEGF120 transcripts ([2]; 0.1 mg/kg/day, day 21): trend towards an increase | VEGF or bFGF mRNA expression ([2]; sham surgery animals): no effect
